According to patent US20230375528A1, “SCREENING METHOD FOR THE IDENTIFICATION OF NOVEL THERAPEUTIC COMPOUNDS” (European Molecular Biology Laboratory, priority 2020, published 2023):

Experiments:
[1] = tested on: RNA; assay: Flag immunoprecipitation and PNK assay of ENO1 variants in pluripotent mESCs; assay type: cell-based, mouse; conditions: murine ENO1 variants from Rosa26 locus, ENO1 knockout
Procedure: Cells expressing Eomes-mCherry or Brachyury-BFP after seven days of LIF withdrawal were sorted for the respective fluorescent marker proteins, cultured for an additional five days and lactate accumulation in the culture medium was quantified (n=3). The standard deviation is given and the statistically significant differences were detected using the two-tailed Student's t-test. b. Cellular RNA-protein interactions were cross-linked with UV and a PNK assay was performed for cell populations described in a. A representative experiment is shown and was performed for a total of three times. Non-crosslinked (No CL), unsorted (us.) mESC were used as specificity controls. Immunoblots of ENO1 and actin are shown as controls. c. […] RNA binding was measured for the three ENO1 variants by Flag immunoprecipitation and PNK assay after UV cross-linking in pluripotent mESCs. […] The standard deviation is given and the statistically significant differences were detected using the two-tailed Student's t-test when comparing to ENO1wt. d. […] The standard deviation is given and the statistically significant differences were detected using the two-tailed Student's t-test when comparing to ENO1wt. e.-g. […] The standard deviation is given and the statistically significant differences were detected using two-way ANOVA with Tukey-corrected multiple comparison testing when comparing to ENO1wt. […]

[2] = target: T1, ENO1down (Homo sapiens, UniProt P06733, K343A); assay: competitive EMSA with ENO1down (K343A) mutant; assay type: binding
T1 construct: made in house
T1 sequence (P06733 whole entry K343A): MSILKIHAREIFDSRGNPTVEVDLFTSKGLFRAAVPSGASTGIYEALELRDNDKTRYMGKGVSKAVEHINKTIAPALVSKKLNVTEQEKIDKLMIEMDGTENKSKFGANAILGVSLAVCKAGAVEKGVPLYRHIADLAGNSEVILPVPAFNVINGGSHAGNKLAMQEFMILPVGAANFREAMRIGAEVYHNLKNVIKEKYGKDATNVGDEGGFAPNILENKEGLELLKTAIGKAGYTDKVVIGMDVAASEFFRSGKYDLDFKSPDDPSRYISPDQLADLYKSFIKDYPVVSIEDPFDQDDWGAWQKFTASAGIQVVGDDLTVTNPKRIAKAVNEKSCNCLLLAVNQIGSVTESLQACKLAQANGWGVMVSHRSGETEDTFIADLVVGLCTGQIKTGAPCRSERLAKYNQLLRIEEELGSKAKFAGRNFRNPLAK
Procedure: Enzymatic activity assay of recombinant human ENO1 with increasing enzyme concentrations exposed to different control and target RNAs (constant conc. 100 nM). b. Measurement of recombinant ENO1wt activity with increasing concentrations of control and target PABPC1 RNA (n=3). The standard deviation is given and the statistically significant differences were detected using two-way ANOVA and Sidak-correction for multiple comparison testing. c. Inhibition constants (Ki) for target and control RNAs for the binding to ENO1down determined by competitive EMSA (n=3). The Ki was calculated using a non-linear fitting with least squares regression. […] Quantification of replicates for the experimental setup in e, including the inhibitor constants (n=3). The Ki was calculated using a non-linear fitting with least squares regression.
Quantification of competition EMSA experiments using PABPC1 target RNA as a probe and unlabelled PABPC1 control or target RNA competing for the binding to ENO1down (n=3). b. Quantification of competition EMSA experiments of ENO1down using FTH1 target RNA as a probe and unlabelled control or target FTH1 RNA as competitors (n=3). c. Quantification of competition EMSA experiments of ENO1down using PTP4A1 target RNA as a probe and unlabelled control or target (n=3). d. […]

[3] = tested on: mESCs; assay: mESC differentiation after LIF withdrawal, qPCR of lineage markers; assay type: cell-based, mouse; conditions: mESCs expressing ENO1 variant, seven days of LIF withdrawal, qPCR of marker genes
Procedure: Cells expressing Eomes-mCherry or Brachyury-BFP after seven days of LIF withdrawal were sorted for the respective fluorescent marker proteins, cultured for an additional five days and lactate accumulation in the culture medium was quantified (n=3). The standard deviation is given and the statistically significant differences were detected using the two-tailed Student's t-test. b. Cellular RNA-protein interactions were cross-linked with UV and a PNK assay was performed for cell populations described in a. A representative experiment is shown and was performed for a total of three times. Non-crosslinked (No CL), unsorted (us.) mESC were used as specificity controls. Immunoblots of ENO1 and actin are shown as controls. c. Cell lines were established for ENO1 knockout and constitutive transgenic expression of Flag-HA-tagged ENO1wt, ENO1up and ENO1down from the Rosa26 locus. RNA binding was measured for the three ENO1 variants by Flag immunoprecipitation and PNK assay after UV cross-linking in pluripotent mESCs. Three independent clones were used. The standard deviation is given and the statistically significant differences were detected using the two-tailed Student's t-test when comparing to ENO1wt. d. Measurement of the lactate accumulation in the culture medium for three independent clones of ENO1wt, ENO1up and ENO1down in pluripotent mESCs. The standard deviation is given and the statistically significant differences were detected using the two-tailed Student's t-test when comparing to ENO1wt. e.-g. Differentiation of mESCs and qPCRs of lineage marker for ENO1wt (e.), ENO1up (f.) and ENO1down (g.) after seven days of LIF withdrawal for three independent clones (from c.) in three experiments. The standard deviation is given and the statistically significant differences were detected using two-way ANOVA with Tukey-corrected multiple comparison testing when comparing to ENO1wt.
Independent clones of these cell lines were subjected to LIF withdrawal and analysed for differentiation to the different germ layers.

RNA binding compared to ENO1wt [1]: decrease in RNA binding | decreased RNA binding compared to ENO1wt [2]: 5-10 fold
Substance: ENO1down: ENO1 mutant K343A with reduced RNA binding
differentiation to germ layers [3]: increased differentiation towards the definitive endoderm
